# Values quoted from earlier work as cited in patent publication US11191273B2, “Methods of making pyranopyrans such as pyranopyran nitrile and methods of using pyranopyrans such as pyranopyran nitrile” (The United States of America, as Represented by the …, priority 2018, dated 2021).
# Test system: cork oak (Quercus suber) cuttings
# Details: literature; cited from earlier work
compound,measurement,value
"C[C@H](O)[C@H]1C=C[C@@H]2OC(=O)C=C[C@@H]2O1 [Diplopyrone, 6-[(1S)-1-hydroxyethyl]-2,4a(S),6(R),8a(S)-tetrahydropyrano-[3,2-b]-pyran-2-one]",phytotoxic effect,causes necrosis and wilting
